Results taken from patent US5643876A, “Biologically active synthetic magainin peptides” (The United States of America as represented by the …, priority 1992, dated 1997).
No end group written: not given here.

How the values were obtained:
Euglena gracilis = experiment: Antiprotozoan activity, physical lysis by light microscopy; type: cell-based; details: approximate concentration, visual assessment by light microscopy
From the text: (§1) Table IV lists the approximate concentration of Magainins which induces physical lysis of several representative protozoan species. These determinations were made by visual assessment of the treated organisms by light microscopy. Of course, the optimal effective antimicrobial concentration of a particular Magainin can be easily determined in a routine manner without undue experimentation by techniques well known to one of ordinary skill in the art.

Paramecium caudatum = experiment: as above; type: cell-based; details: approximate concentration, visual assessment by light microscopy
From the text: as §1

Amoeba proteus = experiment: as above; type: cell-based; details: approximate concentration, visual assessment by light microscopy
From the text: as §1

[1] = tested on: Salmonella typhimurium (14028); experiment: Minimal inhibitory concentration in trypticase soy broth; type: cell-based
From the text: (§2) Table III also lists the range of minimal inhibitory concentrations for various organisms assayed in trypticase soy broth. These determinations were made following standard techniques well known in the art and described in such publications as, DIFCO Manual, 10th edition, 1984, pages 78-80.

[2] = tested on: Streptococcus pyogenes (19615); experiment: as above; type: cell-based
From the text: as §2

[3] = tested on: Klebisiella pneumonia (13883); experiment: as above; type: cell-based
From the text: as §2

Proteus vulgaris (13315) = experiment: as above; type: cell-based
From the text: as §2

Eschericia coli (25922) = experiment: as above; type: cell-based
From the text: as §2

Eschericia coli D31 = experiment: as above; type: cell-based
From the text: as §2

[4] = tested on: Pseudomonas aeruginosa (27853); experiment: as above; type: cell-based
From the text: as §2

[5] = tested on: Staphyloccus epidermidis (1228); experiment: as above; type: cell-based
From the text: as §2

[6] = tested on: Streptococcus faecalis (19433); experiment: as above; type: cell-based
From the text: as §2

[7] = tested on: Staphylococcus aureus (25923); experiment: as above; type: cell-based
From the text: as §2

[8] = tested on: Serratia marcescens (8100); experiment: as above; type: cell-based
From the text: as §2

Candida albicans (14053) = experiment: as above; type: cell-based
From the text: as §2

[9] = tested on: Enterobacter aerogenes (13048); experiment: as above; type: cell-based
From the text: as §2

[10] = tested on: Acinetobacter caloaceticus (19606); experiment: as above; type: cell-based
From the text: as §2

[11] = tested on: Citrobacter freundii (8090); experiment: as above; type: cell-based
From the text: as §2

[12] = tested on: Enterobacter sonnei (23355); experiment: as above; type: cell-based
From the text: as §2

Shigella sonnei (25931) = experiment: as above; type: cell-based
From the text: as §2

Saccharomyces cerviscae = experiment: Comparison of potencies, MIC (Table V); type: cell-based
From the text: (§3) It is pointed that the addition of a carboxyl-terminal amide to Magainin II results in about a 5-fold increase in potency of the peptide in several systems when compared to Magainin II. This simple modification illustrates one of several ways of modifying the polypeptides of the present invention.

E. coli D-31 = experiment: Comparison of potencies, MIC (Table V); type: cell-based; details: E. coli D-31 (Table V)
From the text: as §3

Pseudomonas aeruginosa = experiment: Comparison of potencies, MIC (Table V); type: cell-based
From the text: as §3

Acanthomeba castellani = experiment: Comparison of potencies, MIC (Table V); type: cell-based
From the text: as §3

E. coli Y1088 = experiment: Zone of inhibition on lawn of E. coli Y1088; type: cell-based
Plasmodium gallinaceum = experiment: Activity against malarial parasite, direct light microscopy; type: cell-based; details: 100 ug/ml in phosphate buffered saline, within seconds
Protocol: Observations of activity were conducted by direct light microscopy. A sample of female and male zygotic forms of the chicken malarial parasite were suspended in phosphate buffered saline. Magainin II(g) was added to each at 100 ug/ml.

[13] = tested on: Peripheral Human Lymphocytes; experiment: Cytotoxicity by loss of Trypan Blue exclusion; type: cell-based; details: 30 minutes after addition
From the text: (§4) This activity is considered a significant attribute of the Magainin peptides in that it permits their use in the killing of animal cells. […] The most resistant appears to be the epithelial cell from the oral mucosa. The most sensitive is a transformed monkey kidney cell. […] This includes anti-tumor activity, in vivo cytolysis or growth inhibition of malignant cells, such as in leukemias and selective reduction in specific cell populations (e.g., removal of lymphocytes from blood).
(§5) Cells were suspended in standard minimal Eagles medium containing 10% fetal calf serum. VERO cells and KB cells were obtained from the American Type Culture Collection. Human diploid fibroblasts were propagated from a primary dermal biopsy. Human lymphocytes were collected from a buffy coat preparation by centrifugation in ficoll-hyapaque medium. Human buccal epithelium was obtained by scraping the oral mucosa with a glass cover-slip and resuspending the cellular scraping in MEM. Cytotoxicity was determined by loss of Trypan Blue exclusion, following addition of dye to the medium. Cytotoxicity was assessed 30 minutes after addition of the peptide. Concentration noted represents the concentration of peptide resulting in 50% toxicity as determined visually by light microscopic examination of the treated cells.

Human KB Cells = experiment: Cytotoxicity by loss of Trypan Blue exclusion; type: cell-based; details: 30 minutes after addition
From the text: as §4, §5

[14] = tested on: Human Diploid Fibroblasts; experiment: Cytotoxicity by loss of Trypan Blue exclusion; type: cell-based; details: 30 minutes after addition
From the text: as §4, §5

[15] = tested on: Human Buccal Epithelial Cells; experiment: Cytotoxicity by loss of Trypan Blue exclusion; type: cell-based; details: 30 minutes after addition
From the text: as §4, §5

Vero Cells = experiment: Cytotoxicity by loss of Trypan Blue exclusion; type: cell-based, monkey; details: 30 minutes after addition, MEM with 10% fetal calf serum
From the text: as §4, §5

HTLV III = experiment: Anti-viral activity against HTLV III in SUPT1 tester cells; type: cell-based; details: 200 μg/ml, virus preincubated 37° C. 30 min
Protocol: HTLV III was obtained from culture media from the producing cell line A.3101. The media was diluted with MEM containing 10% fetal calf serum (FCS) to a viral concentration of about 10^4 pfu/ml. Magainin II(g) was added to the viral innoculum (1 ml) to a concentration of 200 μg/ml and incubated at 37° C. for 30 min. The viral innoculum was then added to a well containing 10^3 tester cells (cell line, SUPT1) and 1 ml of MEM with 10% FCS. Viral activity was assessed by formation of syncytia and cell death in the test cell culture as compared with cell cultures unexposed to Magainin peptides.

human sperm = experiment: Spermicidal activity, sperm motility by light microscopy; type: cell-based; details: human sperm in phosphate buffered saline, room temperature
Protocol: Magainin II(g) was added in various concentrations to a suspension of human sperm in phosphate buffered saline. Motility was assayed by visual inspection under a light microscope. Observations were conducted at room temperature (about 22°-25° C.). The approximate number of motile sperm observed in 20 independent fields was noted as a function of concentration. Magainin II(g) inhibits sperm motility by 50% at 35 μg/ml and by 100% at 75 μg/ml.

[16] = tested on: Shigella flexneri (12022); experiment: Minimal inhibitory concentration in trypticase soy broth; type: cell-based
From the text: as §2

Row | Substance | Concentration required for osmotic lysis (Euglena gracilis) [µg/mL] | Concentration required for osmotic lysis (Paramecium caudatum) [µg/mL] | Concentration required for osmotic lysis (Amoeba proteus) [µg/mL] | Minimal Inhibitory Concentration [1] [µg/mL] | Minimal Inhibitory Concentration [2] [µg/mL] | Minimal Inhibitory Concentration (Proteus vulgaris (13315)) [µg/mL] | Minimal Inhibitory Concentration (Eschericia coli (25922)) [µg/mL] | Minimal Inhibitory Concentration (Eschericia coli D31) [µg/mL] | Minimal Inhibitory Concentration [4] [µg/mL] | Minimal Inhibitory Concentration [5] [µg/mL] | Minimal Inhibitory Concentration [6] [µg/mL] | Minimal Inhibitory Concentration [7] [µg/mL] | Minimal Inhibitory Concentration [8] [µg/mL] | Minimal Inhibitory Concentration (Candida albicans (14053)) [µg/mL] | Minimal Inhibitory Concentration [9] [µg/mL] | Minimal Inhibitory Concentration [10] [µg/mL] | Minimal Inhibitory Concentration [11] [µg/mL] | Zone of Inhibition on Lawn of E. coli Y1088 Generated by 50 μg of the Peptide (E. coli Y1088) [mm] | also measured
1 | GIGKFLHSAKKFGKAFVGEIMN [Magainin III] | 5 | 5 | 5 | 35 to 70 | 7 to 35 | > 100 | 7 to 35 | 1 to 10 | 35 to 70 | 35 to 70 | > 100 | > 100 | > 100 | > 100 | > 100 | 7 to 35 | 7 to 35 |  | Minimal Inhibitory Concentration [3]: > 100 µg/mL
2 | GIGKFLHSAKKFGKAFVGEIMNS [Magainin II] | 5 | 5 | 5 | 35 to 70 | 1 to 7 | > 100 | 1 to 7 | 1 to 10 | 35 to 70 | 7 to 35 | 35 to 70 | 35 to 70 | > 100 | 35 to 70 | 7 to 35 | 1 to 7 | 7 to 35 |  | Minimal Inhibitory Concentration [12]: 1 to 7 µg/mL; Minimal Inhibitory Concentration (Shigella sonnei (25931)): 1 to 7 µg/mL; MIC (Saccharomyces cerviscae): 50 µg/mL; MIC (E. coli D-31): 10 µg/mL; MIC (Pseudomonas aeruginosa): 70 µg/mL; MIC (Acanthomeba castellani): 15 µg/mL
3 | KFLHSAKKFGKAFVGEIMNS [Magainin II(c)] |  |  |  |  |  |  |  |  |  |  |  |  |  |  |  |  |  | 10 | 
4 | FLHSAKKFGKAFVGEIMNS [Magainin II(d), (NH2)FLHSAKKFGKAFVGEIMNS(OH)] |  |  |  |  |  |  |  |  |  |  |  |  |  |  |  |  |  | 2 | 
5 | GIGKYLHSAKKFGKAFVGEIMNS-NH2 [Magainin II(h)] |  |  |  |  |  |  |  |  |  |  |  |  |  |  |  |  |  | 7 | 
6 | HSAKKFGKAFVGEIMNS [Magainin II(f), (NH2)HSAKKFGKAFVGEIMNS(OH)] |  |  |  |  |  |  |  |  |  |  |  |  |  |  |  |  |  | 0 | Effect on female and male zygotic forms of Plasmodium gallinaceum (Plasmodium gallinaceum): no visible effect
7 | GIGKFLHSAKKFGKAFVGEIMNS-NH2 [Magainin II(g)] |  |  |  |  |  |  |  |  |  |  |  |  |  |  |  |  |  | 15 | Concentration of peptide resulting in 50% toxicity [13]: 75 µg/mL; Concentration of peptide resulting in 50% toxicity (Human KB Cells): 125 µg/mL; Concentration of peptide resulting in 50% toxicity [14]: 250 µg/mL; Concentration of peptide resulting in 50% toxicity [15]: 500 µg/mL; Concentration of peptide resulting in 50% toxicity (Vero Cells): 25 µg/mL; Effect on female and male zygotic forms of Plasmodium gallinaceum (Plasmodium gallinaceum): both forms underwent evident physical lysis; Reverse transcriptase activity in culture fluids (HTLV III): no greater reverse transcriptase activity than uninfected cells; Viral activity by formation of syncytia and cell death in test cell culture (HTLV III; 2 weeks incubation): appeared identical to cultures not exposed to virus; Concentration that inhibits sperm motility by 50% (human sperm): 35 µg/mL; Concentration that inhibits sperm motility by 100% (human sperm): 75 µg/mL; MIC (Saccharomyces cerviscae): 10 µg/mL; MIC (E. coli D-31): 2 µg/mL; MIC (Pseudomonas aeruginosa): 15 µg/mL; MIC (Acanthomeba castellani): 3 µg/mL
8 | GIGKFLHSAGKFGKAFVGEIMKS [Magainin I] | 5 | 5 | 5 | > 100 | 7 to 35 | > 100 | 7 to 35 | 1 to 20 | > 100 | > 100 | > 100 | > 100 | > 100 | > 100 | > 100 | 7 to 35 | > 100 |  | Minimal Inhibitory Concentration [3]: > 100 µg/mL; Minimal Inhibitory Concentration [16]: 35 to 70 µg/mL
9 | GKFLHSAKKFGKAFVGEIMNS [Magainin II(b)] |  |  |  |  |  |  |  |  |  |  |  |  |  |  |  |  |  | 10 | 
10 | LHSAKKFGKAFVGEIMNS [Magainin II(e), (NH2)LHSAKKFGKAFVGEIMNS(OH)] |  |  |  |  |  |  |  |  |  |  |  |  |  |  |  |  |  | 1 | 
